Source: the supplement of paper PMC4862054

Legend:
Details in all cases: incubation time: 72 h
[1] = tested on: MDA-MB-436; experiment: normalised response (% of control), CellTox Green; higher = less cell death (100 = DMSO, 0 = benzethonium chloride kill control)
In short: (§1)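 After 72 h with compound in 384-well plates, breast cancer cell lines seeded as 20 µl suspension were read for CellTox Green fluorescence at 485/520 nm. CellTiter-Glo luminescence was then read after 10 min at room temperature. Compound was present at 5 concentrations in 10-fold steps over a 10,000-fold range set per compound, and plates were normalised to 0.1 % DMSO (100) and a positive kill control (0). Values are normalised signals, each at a single concentration.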

[2] = tested on: Hs578T; experiment: as above
In short: as §1

[3] = tested on: MDA-MB-453; experiment: as above
In short: as §1

[4] = tested on: HCC1937; experiment: as above
In short: as §1

[5] = tested on: HCC1143; experiment: as above
In short: as §1

[6] = tested on: CAL-51; experiment: as above
In short: as §1

[7] = tested on: MFM-223; experiment: as above
In short: as §1

[8] = tested on: BT-474; experiment: as above
In short: as §1

[9] = tested on: BT-549; experiment: as above
In short: as §1

[10] = tested on: HCC1599; experiment: as above
In short: as §1

[11] = tested on: HDQ-P1; experiment: as above
In short: as §1

[12] = tested on: MCF-10A; experiment: as above
In short: as §1

[13] = tested on: MDA-MB-231; experiment: as above
In short: as §1

[14] = tested on: CAL-148; experiment: as above
In short: as §1

[15] = tested on: MDA-MB-468; experiment: as above
In short: as §1

[16] = tested on: CAL-120; experiment: as above
In short: as §1

[17] = tested on: CAL-85-1; experiment: as above
In short: as §1

[18] = tested on: DU-4475; experiment: as above
In short: as §1

[19] = tested on: MDA-MB-436; experiment: normalised response (% of control), CellTiter-Glo; higher = more viable cells (100 = DMSO, 0 = benzethonium chloride kill control)
In short: as §1

[20] = tested on: Hs578T; experiment: as above
In short: as §1

[21] = tested on: MDA-MB-453; experiment: as above
In short: as §1

[22] = tested on: HCC1937; experiment: as above
In short: as §1

[23] = tested on: HCC1143; experiment: as above
In short: as §1

[24] = tested on: CAL-51; experiment: as above
In short: as §1

[25] = tested on: MFM-223; experiment: as above
In short: as §1

[26] = tested on: BT-474; experiment: as above
In short: as §1

[27] = tested on: BT-549; experiment: as above
In short: as §1

[28] = tested on: HCC1599; experiment: as above
In short: as §1

[29] = tested on: HDQ-P1; experiment: as above
In short: as §1

[30] = tested on: MCF-10A; experiment: as above
In short: as §1

[31] = tested on: MDA-MB-231; experiment: as above
In short: as §1

[32] = tested on: SK-BR-3; experiment: as above
In short: as §1

[33] = tested on: CAL-148; experiment: as above
In short: as §1

[34] = tested on: MDA-MB-468; experiment: as above
In short: as §1

[35] = tested on: CAL-120; experiment: as above
In short: as §1

[36] = tested on: CAL-85-1; experiment: as above
In short: as §1

[37] = tested on: DU-4475; experiment: as above
In short: as §1

Row | SMILES | normalised response [1] [%] | normalised response [2] [%] | normalised response [3] [%] | normalised response [4] [%] | normalised response [5] [%] | normalised response [6] [%] | normalised response [7] [%] | normalised response [8] [%] | normalised response [9] [%] | normalised response [10] [%] | normalised response [11] [%] | normalised response [12] [%] | normalised response [13] [%] | normalised response [14] [%] | normalised response [15] [%] | normalised response [16] [%] | normalised response [17] [%] | normalised response [18] [%] | normalised response [19] [%] | normalised response [20] [%] | normalised response [21] [%] | normalised response [22] [%] | normalised response [23] [%] | normalised response [24] [%] | normalised response [25] [%] | normalised response [26] [%] | normalised response [27] [%] | normalised response [28] [%] | normalised response [29] [%] | normalised response [30] [%] | normalised response [31] [%] | normalised response [32] [%] | normalised response [33] [%] | normalised response [34] [%] | normalised response [35] [%] | normalised response [36] [%] | normalised response [37] [%]
1 | CC/C(=C(\c1ccc(O)cc1)c1ccc(OCCN(C)C)cc1)c1ccccc1 [4-hydroxytamoxifen] (100 nM) | 108 | 50.3 | 111 | 89.2 | 115 | 98.1 | 106 | 105 | 104 | 114 | 87.3 | 93 | 117 | 99.1 | 106 | 98.8 | 113 | 108 | 94.9 | 98 | 111 | 95 | 96.2 | 99 | 99.1 | 99.1 | 107 | 91.5 | 95.9 | 106 | 100 | 101 | 99.9 | 93.2 | 105 | 105 | 104
2 | Nc1ccccc1NC(=O)c1ccc(CNc2nccc(-c3cccnc3)n2)cc1 [Mocetinostat] (100 nM) | 96.4 | 112 | 98.1 |  | 101 | 82 | 97.5 | 99.1 | 99.1 | 95.8 | 104 | 93.1 | 89.2 |  | 104 | 93.3 | 97.4 | 99.1 | 90.7 | 93.2 | 99.4 | 86.1 | 102 | 78.3 | 92.6 | 91.5 | 106 | 97.2 | 88.7 | 157 | 97.5 | 115 | 99 | 90.6 | 102 | 93.3 | 107
3 | Cc1ccc(Nc2nccc(N(C)c3ccc4c(C)n(C)nc4c3)n2)cc1S(N)(=O)=O [Pazopanib] (100 nM) | 94.2 | 107 | 97.4 | 66.2 | 98 | 104 | 104 | 96.2 | 98.1 | 112 | 109 | 72.7 | 100 | 96 |  | 95 | 103 | 101 | 103 | 103 | 108 | 99 | 105 | 96.7 | 103 | 107 | 102 | 103 | 101 | 97.3 | 98.7 | 100 | 112 | 104 | 95.9 | 104 | 100
4 | O=C(Nc1c[nH]nc1-c1nc2ccc(CN3CCOCC3)cc2[nH]1)NC1CC1 [AT9283] (10 nM) | 103 | 89.3 | 103 | 123 | 108 | 61.2 | 53.1 | 102 | 105 | 115 | 115 | 91.8 | 98.2 | 106 |  | 97.7 | 102 | 101 | 105 | 101 | 97.1 | 98.1 | 109 | 67.3 | 98.2 | 93.8 | 94.1 | 95.2 | 101 | 96.9 | 100 | 93.5 | 105 | 96.6 | 103 | 94.8 | 101
5 | CO[C@@H](C(=O)N1Cc2[nH]nc(NC(=O)c3ccc(N4CCN(C)CC4)cc3)c2C1)c1ccccc1 [Danusertib] (100 nM) | 98.2 | 98.2 | 97.7 | 93.8 | 111 | 62.2 | 104 | 99 | 101 | 102 | 109 | 108 |  | 69.4 | 69.6 | 97.5 | 86.5 | 97.1 | 101 | 97 | 133 | 96.8 | 91.4 | 82.5 | 67.1 | 98.6 | 92.7 | 105 | 96.4 | 84.6 | 94.8 | 82.5 | 57.7 | 50.5 | 89 | 95.5 | 100
